Assay results published in patent US11999715B2, “ASK1 inhibiting agents” (BIOGEN MA INC., priority 2018, dated 2024).

Experiments:
[1] = target: T1, ASK1/MAP3K5 (Homo sapiens, UniProt Q99683); experiment: ASK1/MAP3K5 kinase assay by Reaction Biology Corp. (headed ASK1 TR-FRET Assay); assay type: biochemical; details: 20 μM myelin basic protein, 10 μM ATP, class symbols
T1 sequence (Q99683 1-1374): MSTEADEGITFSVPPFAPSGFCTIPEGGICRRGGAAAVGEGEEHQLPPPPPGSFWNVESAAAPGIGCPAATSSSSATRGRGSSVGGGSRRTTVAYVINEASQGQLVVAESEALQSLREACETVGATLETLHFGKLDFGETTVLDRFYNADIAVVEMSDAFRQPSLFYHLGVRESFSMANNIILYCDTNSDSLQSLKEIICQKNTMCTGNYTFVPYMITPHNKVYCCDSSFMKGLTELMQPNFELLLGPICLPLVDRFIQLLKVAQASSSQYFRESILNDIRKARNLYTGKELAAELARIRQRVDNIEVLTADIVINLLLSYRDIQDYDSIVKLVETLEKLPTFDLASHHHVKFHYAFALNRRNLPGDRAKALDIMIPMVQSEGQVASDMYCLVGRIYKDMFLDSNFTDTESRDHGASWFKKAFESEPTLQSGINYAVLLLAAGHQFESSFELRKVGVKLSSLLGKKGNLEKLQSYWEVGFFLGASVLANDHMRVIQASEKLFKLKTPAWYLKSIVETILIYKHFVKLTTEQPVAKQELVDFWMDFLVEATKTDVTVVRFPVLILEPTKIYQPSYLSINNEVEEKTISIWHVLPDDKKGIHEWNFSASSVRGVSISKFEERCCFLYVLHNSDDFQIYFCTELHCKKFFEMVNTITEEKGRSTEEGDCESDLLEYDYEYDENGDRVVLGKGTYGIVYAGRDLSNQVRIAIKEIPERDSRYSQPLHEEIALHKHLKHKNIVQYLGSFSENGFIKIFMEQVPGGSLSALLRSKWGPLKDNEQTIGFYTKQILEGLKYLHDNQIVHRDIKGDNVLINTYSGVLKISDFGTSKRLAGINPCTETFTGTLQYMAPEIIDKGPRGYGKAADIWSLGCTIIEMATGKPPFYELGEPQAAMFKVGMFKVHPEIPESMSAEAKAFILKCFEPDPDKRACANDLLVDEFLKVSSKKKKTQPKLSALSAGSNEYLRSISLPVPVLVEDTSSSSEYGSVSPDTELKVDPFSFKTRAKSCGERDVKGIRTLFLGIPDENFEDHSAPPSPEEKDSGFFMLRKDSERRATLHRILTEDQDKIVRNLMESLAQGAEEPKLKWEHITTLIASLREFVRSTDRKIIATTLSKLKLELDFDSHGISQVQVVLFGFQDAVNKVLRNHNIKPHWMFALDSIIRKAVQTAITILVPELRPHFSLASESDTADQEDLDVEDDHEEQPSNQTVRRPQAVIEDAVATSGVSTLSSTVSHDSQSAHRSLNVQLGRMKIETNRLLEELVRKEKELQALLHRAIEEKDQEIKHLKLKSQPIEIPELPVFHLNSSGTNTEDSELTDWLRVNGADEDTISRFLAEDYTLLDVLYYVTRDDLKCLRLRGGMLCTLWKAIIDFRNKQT
Experimental: Example 111: Brief Description of ASK1 TR-FRET Assay The protein kinase inhibitory activity of the compounds described herein were tested using the ASK1/MAP3K5 assay by Reaction Biology Corp. (Malvern, PA). The assay procedure follows (and is also available on the Reaction Biology Corp. website). Base Reaction Buffer: 20 mM Hepes (pH 7.5), 10 mM MgCl2, 1 mM EGTA, 0.02% Brij35, 0.02 mg/mL BSA, 0.1 mM Na3VO4, 2 mM DTT, 1% DMSO; Substrate: 20 μM of myelin basic protein (MBP) and 10 μM ATP; Protein kinase: ASK1/MAP3K5. Reaction Procedure: • 1. Prepare indicated substrate in freshly prepared Base Reaction Buffer. • 2. Deliver any required cofactors to the substrate solution. • 3. Deliver indicated kinase into the substrate solution and gently mix. • 4. Deliver compounds in DMSO into the kinase reaction mixture by Acoustic; technology (Echo550; nanoliter range), incubate for 20 minutes at room temperature. • 5. Deliver ^33P-ATP (specific activity 10 μCi/μL) into the reaction mixture to initiate the reaction. • 6. Incubate kinase reaction for 2 hours at room temperature. • 7. Reactions are spotted onto P81 ion exchange paper. • 8. Detect kinase activity by filter-binding method.

[2] = target: T2, ASK1 T838 auto phosphorylation (Homo sapiens, UniProt Q99683); experiment: ASK1 (AUTO PHOS T838) assay, MSD format, in HEK-293T cells transfected with ASK1-V5; assay type: cell-based; details: ASK1 T838 auto phosphorylation in HEK-293T cells, 1 hr compound incubation; class symbols
T2 sequence (Q99683 1-1374): T1 sequence (Q99683 1-1374)
Experimental: Example 112: Brief Description of ASK1(AUTO PHOS T838) Assay ASK1 T838 auto phosphorylation was measured in HEK-293T cells using MSD assay format. HEK 293T cells were seeded in 15 cm plates at a density of 18 million cells and 20 mL DMEM with 10% FBS, Pen/Strep media. The plates were incubated at 37° C. overnight. Media on plates was changed to OPTI-MEM, serum free media and cells were transfected with 9 μg of ASK1-V5 tagged full length plasmid using Lipofectamine 2000 (Invitrogen) and the plates were incubated at 37° C. overnight. Cells were trypsinized, counted on Nexcellometer and plated into 96 well tissue culture plates with 100,000 cells/well and 200 μL media. Cells were incubated for 4 hr at 37° C. then ASK1 compounds were added using a HP 300e. Compounds were tested at 20 μM with 3 fold, 10 point dilution points then incubated for 1 hr at 37° C. A lysis buffer (Cell Signaling) was prepared with protease and phosphatase inhibitor and maintained at 4° C. until use. Media from cells was discarded and 120 μL of cold lysis buffer was added to the cells, the plate was shaken 4° C. for 1 hr. Lysate was mixed using Apricot liquid handler; aspirating up and down 16 times at high speed using 50 μL volume. […] Plates were then incubated on a plate shaker overnight at 4° C. Plates were washed 3× with MSD wash buffer and 50 μL of rabbit anti-pASK1 T838 antibody was added to the wells and incubated for 2 hr at room temperature on a plate shaker. Plates were then washed and 50 μL of goat anti-rabbit sulfa-tag (1:500 dilution) was added to wells, and incubated for 1 hr at room temperature on a plate shaker. […] Plates were immediately read on a MSD Instrument Reader where chemoluminescence signal was measured. Data was analyzed using Graph Pad or Genedata, the data was normalized and plotted, % activity versus log of compound concentration. The IC50 values were obtained from a 4 parameter fit. The compounds described herein were tested for in the above cell-based assay.

| Compound | IC50 [1] [nM] | IC50 [2] [nM] |
| --- | --- | --- |
| COc1nn(C)cc1C(=O)Nc1cccc(-c2nncn2C(C)CO)n1 (racemic) [Example 35, rac-N-(6-(4-(1-Hydroxypropan-2-yl)-4H-1,2,4-triazol-3-yl)pyridin-2-yl)-3-methoxy-1-methyl-1H-pyrazole-4-carboxamide] | ≤ 100 | 1000 to 10000 |
| COc1nn(C)cc1C(=O)Nc1cccc(-c2nncn2[C@@H](C)C(F)F)n1 (single isomer, unassigned) [Example 27] | ≤ 100 | ≤ 1000 |
| COc1nn(C)cc1C(=O)Nc1cccc(-c2nncn2[C@@H]2CCC2(F)F)n1 (single isomer, unassigned) [Example 32] | 100 to 1000 | ≤ 1000 |
| COC[C@@H](C)n1cnnc1-c1cccc(NC(=O)c2cn(C)nc2OC)n1 (single isomer, unassigned) [Example 34] | 100 to 1000 | ≤ 1000 |
| COc1nn(C)cc1C(=O)Nc1cccc(-c2nncn2[C@H](C)CO)n1 (single isomer, unassigned) [Example 36] | ≤ 100 | ≤ 1000 |
| CCOc1nn(C)cc1C(=O)Nc1cccc(-c2nncn2C(C)C)n1 [Example 3, 3-Ethoxy-N-(6-(4-isopropyl-4H-1,2,4-triazol-3-yl)pyridin-2-yl)-1-methyl-1H-pyrazole-4-carboxamide] | ≤ 100 | ≤ 1000 |
| COCc1nn(C)cc1C(=O)Nc1cccc(-c2nncn2C(C)C)n1 [Example 4, N-(6-(4-Isopropyl-4H-1,2,4-triazol-3-yl)pyridin-2-yl)-3-(methoxymethyl)-1-methyl-1H-pyrazole-4-carboxamide] | 100 to 1000 | 1000 to 10000 |
| CC(C)n1cnnc1-c1cccc(NC(=O)c2cn(C)nc2C(F)(F)F)n1 [Example 5, N-(6-(4-Isopropyl-4H-1,2,4-triazol-3-yl)pyridin-2-yl)-1-methyl-3-(trifluoromethyl)-1H-pyrazole-4-carboxamide] | 100 to 1000 | 1000 to 10000 |
| COc1nn(Cc2ccccc2)cc1C(=O)Nc1cccc(-c2nncn2C(C)C)n1 [Example 8, 1-Benzyl-N-(6-(4-isopropyl-4H-1,2,4-triazol-3-yl)pyridin-2-yl)-3-methoxy-1H-pyrazole-4-carboxamide] | ≤ 100 | ≤ 1000 |
| COc1nn(C)cc1C(=O)Nc1cccc(-c2nncn2C(C)C(F)(F)F)n1 (stereo not drawn) [Example 10, 3-Methoxy-1-methyl-N-(6-(4-(1,1,1-trifluoropropan-2-yl)-4H-1,2,4-triazol-3-yl)pyridin-2-yl)-1H-pyrazole-4-carboxamide] | – | ≤ 1000 |
| CCCn1cc(C(=O)Nc2cccc(-c3nncn3C(C)C)n2)c(OC)n1 [Example 58, N-(6-(4-Isopropyl-4H-1,2,4-triazol-3-yl)pyridin-2-yl)-3-methoxy-1-propyl-1H-pyrazole-4-carboxamide] | – | ≤ 1000 |
| COc1nn(-c2ccccc2)cc1C(=O)Nc1cccc(-c2nncn2C(C)C)n1 [Example 60, N-(6-(4-Isopropyl-4H-1,2,4-triazol-3-yl)pyridin-2-yl)-3-methoxy-1-phenyl-1H-pyrazole-4-carboxamide] | – | ≤ 1000 |
| COc1nn(CC2CC2)cc1C(=O)Nc1cccc(-c2cncn2C(C)C)n1 [Example 91, 1-(Cyclopropylmethyl)-N-(6-(1-isopropyl-1H-imidazol-5-yl)pyridin-2-yl)-3-methoxy-1H-pyrazole-4-carboxamide] | – | ≤ 1000 |

Now from value to compound:

| IC50 [1] [nM] | IC50 [2] [nM] | Compound |
| --- | --- | --- |
| ≤ 100 | ≤ 1000 | COc1nn(C)cc1C(=O)Nc1cccc(-c2nncn2[C@H](C)C(F)F)n1 (single isomer, unassigned) [Example 28] |
| ≤ 100 | ≤ 1000 | COc1nn(C)cc1C(=O)Nc1cccc(-c2nncn2[C@H]2CCC2(F)F)n1 (single isomer, unassigned) [Example 31] |
| ≤ 100 | ≤ 1000 | COC[C@H](C)n1cnnc1-c1cccc(NC(=O)c2cn(C)nc2OC)n1 (single isomer, unassigned) [Example 33] |
| ≤ 100 | 1000 to 10000 | COc1nn(C)cc1C(=O)Nc1cccc(-c2nncn2[C@@H](C)CO)n1 (single isomer, unassigned) [Example 37] |
| 100 to 1000 | 1000 to 10000 | COc1nn(C)cc1C(=O)Nc1cccc(-c2nncn2[C@H]2CCN(C(=O)OC(C)(C)C)C2)n1 (single isomer, unassigned) [Example 40] |
| ≤ 100 | ≤ 1000 | COc1nn(C)cc1C(=O)Nc1cccc(-c2nncn2[C@@H]2CCOC2)n1 (single isomer, unassigned) [Example 109] |
| ≤ 100 | ≤ 1000 | COc1nn(C)cc1C(=O)Nc1cccc(-c2nncn2[C@H]2CCOC2)n1 (single isomer, unassigned) [Example 110] |
| 100 to 1000 | ≤ 1000 | CC(C)n1cnnc1-c1cccc(NC(=O)c2cn(C)nc2C(F)F)n1 [Example 6, 3-(Difluoromethyl)-N-(6-(4-isopropyl-4H-1,2,4-triazol-3-yl)pyridin-2-yl)-1-methyl-1H-pyrazole-4-carboxamide] |
| 100 to 1000 | ≤ 1000 | CC(C)n1cnnc1-c1cccc(NC(=O)c2cnn(C(C)(C)C)c2)n1 [Example 9, 1-(tert-Butyl)-N-(6-(4-isopropyl-4H-1,2,4-triazol-3-yl)pyridin-2-yl)-1H-pyrazole-4-carboxamide] |
| 100 to 1000 | ≤ 1000 | COc1nn(C)cc1C(=O)Nc1cccc(-c2nncn2[C@H](C)C(F)(F)F)n1 [Example 11, (R)-3-Methoxy-1-methyl-N-(6-(4-(1,1,1-trifluoropropan-2-yl)-4H-1,2,4-triazol-3-yl)pyridin-2-yl)-1H-pyrazole-4-carboxamide] |
